Assay results published in the NIST ThermoML archive (doi:10.1016/j.fluid.2019.06.021).
Numbers after ± are expanded uncertainties.

conditions: Crystal; DTA

SMILES | Normal melting temperature [°C]
CCN(C(=O)N(CC)c1ccccc1)c1ccccc1 [1,3-diethyl-1,3-diphenylurea] | 72.6 ± 0.9
O=[N+]([O-])c1ccccc1Nc1ccccc1 [2-nitrodiphenylamine] | 74.8 ± 0.9
c1ccc(Nc2ccccc2)cc1 [diphenylamine] | 52.5 ± 0.9

Further lines, results first:

Normal melting temperature [°C] | SMILES
113.2 ± 0.9 | CC(=O)OCCNc1ccc([N+](=O)[O-])cc1 [2-[(4-nitrophenyl)amino]ethanol 1-acetate]
85.8 ± 0.9 | COCCNc1ccc([N+](=O)[O-])cc1 [N-(2-methoxyethyl)-4-nitroaniline]
